Measurements reported in patent US11066414B2, “Cot modulators and methods of use thereof” (Gilead Sciences, Inc., priority 2015, dated 2021).
Where two headings read alike, the source gives them in different places.

Tested on: TNFα
Experiment: Cot Monocyte TNFα Cell Based Assay
[1] = Homo sapiens, Monocyte, read-out: EC50 TNF, LPS-stimulated human monocytes, TNFα
[2] = read-out: EC50 TNF, LPS-stimulated human monocytes, TNFα

| EC50 [1] | SMILES | also measured |
| --- | --- | --- |
| 135 nM | CC(C)(C)CNc1c(C#N)cnc2c(Cl)cc(N[C@H](c3cn(C4(C(F)(F)F)CC4)nn3)c3ccc(Cl)c4cnccc34)cc12 [Example 651, (S)-8-chloro-6-(((8-chloroisoquinolin-5-yl)(1-(1-(trifluoromethyl)cyclopropyl)-1H-1,2,3-triazol-4-yl)methyl)amino)-4-(neopentylamino)quinoline-3-carbonitrile] |  |
| 104 nM | Cn1ncc2c([C@H](Nc3cc(Cl)c4ncc(C#N)c(NCC(C)(C)C)c4c3)c3cn(Cc4c(F)cccc4F)nn3)cccc21 [Example 655, (S)-8-chloro-6-(((1-(2,6-difluorobenzyl)-1H-1,2,3-triazol-4-yl)(1-methyl-1H-indazol-4-yl)methyl)amino)-4-(neopentylamino)quinoline-3-carbonitrile] |  |
| 806 nM | Cc1ncoc1[C@H](Nc1cc(C#N)c2ncc(C#N)c(NCC(C)(C)C)c2c1)c1cn(C2(C(F)F)CC2)nn1 [Example 657, (R)-6-(((1-(1-(difluoromethyl)-cyclopropyl)-1H-1,2,3-triazol-4-yl)(4-methyloxazol-5-yl)methyl)amino)-4-(neopentylamino)quinoline-3,8-dicarbonitrile] |  |
| 374 nM | Cn1ccc2c([C@H](Nc3cc(Cl)c4ncc(C#N)c(NCC(C)(C)C)c4c3)c3cn(C4(C(F)(F)F)CC4)nn3)ccnc21 [Example 658, (S)-8-chloro-6-(((1-methyl-1H-pyrrolo[2,3-b]pyridin-4-yl)(1-(1-(trifluoromethyl)-cyclopropyl)-1H-1,2,3-triazol-4-yl)methyl)amino)-4-(neopentylamino)quinoline-3-carbonitrile] |  |
| 154 nM | Cn1ccc2c([C@H](Nc3cc(C#N)c4ncc(C#N)c(NCC(C)(C)C)c4c3)c3cn(C4(C(F)(F)F)CC4)nn3)ccnc21 [Example 664, (S)-6-(((1-methyl-1H-pyrrolo[2,3-b]pyridin-4-yl)(1-(1-(trifluoromethyl)cyclopropyl)-1H-1,2,3-triazol-4-yl)methyl)amino)-4-(neopentylamino)quinoline-3,8-dicarbonitrile] |  |
|  | Cn1nccc1[C@H](Nc1cc(Cl)c2ncc(C#N)c(NCC(C)(C)C)c2c1)c1cn(C2(C(F)(F)F)CC2)nn1 [Example 666, (S)-8-chloro-6-(((1-methyl-1H-pyrazol-S-yl)(1-(1-(trifluoromethyl)cyclopropyl)-1H-1,2,3-triazol-4-yl)methyl)amino)-4-(neopentylamino)quinoline-3-carbonitrile] | EC50 [2]: 246 nM |
| 710 nM | [2H]C([2H])(Nc1c(C#N)cnc2c(Cl)cc(N[C@@]([2H])(c3ccc(N(C)C)nc3)c3cn(C4CC4)nn3)cc12)C(C)(C)C [Example 679, (S)-8-chloro-6-(((1-cyclopropyl-1H-1,2,3-triazol-4-yl)(6-(dimethylamino)pyridin-3-yl)methyl-d)amino)-4-((2,2-dimethylpropyl-1,1-d2)amino)quinoline-3-carbonitrile] |  |
| 178 nM | Cc1ccc([C@H](Nc2cc(Cl)c3ncc(C#N)c(NCC(C)(C)C)c3c2)c2cn(C3(C(F)(F)F)CC3)nn2)c(C)n1 [Example 687, (S)-8-chloro-6-(((2,6-dimethylpyridin-3-yl)(1-(1-(trifluoromethyl)cyclopropyl)-1H-1,2,3-triazol-4-yl)methyl)amino)-4-(neopentylamino)quinoline-3-carbonitrile] |  |
| 141 nM | CC(C)(C)CNc1c(C#N)cnc2c(Cl)cc(N[C@H](c3cn(C(C)(C)C(F)F)nn3)c3cccc4ncccc34)cc12 [Example 693, (S)-8-chloro-6-(((1-(1,1-difluoro-2-methylpropan-2-yl)-1H-1,2,3-triazol-4-yl)(quinolin-5-yl)methyl)amino)-4-(neopentylamino)quinoline-3-carbonitrile] |  |
| 386 nM | CC(C)(C)CNc1c(C#N)cnc2c(Cl)cc(N[C@@H](c3ccc4cccnc4c3)c3cn(C4(C(F)F)CC4)nn3)cc12 [Example 699, (S)-8-chloro-6-(((1-(1-(difluoromethyl)cyclopropyl)-1H-1,2,3-triazol-4-yl)(quinolin-7-yl)methyl)amino)-4-(neopentylamino)quinoline-3-carbonitrile] |  |
| 178 nM | Cc1nc(F)ccc1[C@H](Nc1cc(Cl)c2ncc(C#N)c(NCC(C)(C)CO)c2c1)c1cn(C2(C(F)F)CC2)nn1 [Example 746, (S)-8-chloro-6-(((1-(1-(difluoromethyl)cyclopropyl)-1H-1,2,3-triazol-4-yl)(6-fluoro-2-methylpyridin-3-yl)methyl)amino)-4-((3-hydroxy-2,2-dimethylpropyl)amino)quinoline-3-carbonitrile] |  |
| 66 nM | Cc1nc(F)ccc1[C@H](Nc1cc(Cl)c2ncc(C#N)c(NCC(C)(C)C)c2c1)c1cn(CC(C)(F)F)nn1 [Example 749, (S)-8-chloro-6-(((1-(2,2-difluoropropyl)-1H-1,2,3-triazol-4-yl)(6-fluoro-2-methylpyridin-3-yl)methyl)amino)-4-(neopentylamino)quinoline-3-carbonitrile] |  |
| 230 nM | Cc1nc(F)ccc1[C@H](Nc1cc(Cl)c2ncc(C#N)c(NCC(C)(C)C)c2c1)c1cn(CC2(C(F)(F)F)CC2)nn1 [Example 751, (S)-8-chloro-6-(((6-fluoro-2-methylpyridin-3-yl)(1-((1-(trifluoromethyl)-cyclopropyl)methyl)-1H-1,2,3-triazol-4-yl)methyl)amino)-4-(neopentylamino)quinoline-3-carbonitrile] |  |
| 59 nM | Cc1nc(F)ccc1[C@H](Nc1cc(Cl)c2ncc(C#N)c(NCC(C)(C)C)c2c1)c1cn(C2(CC(F)(F)F)CC2)nn1 [Example 753, (S)-8-chloro-6-(((6-fluoro-2-methylpyridin-3-yl)(1-(1-(2,2,2-trifluoroethyl)-cyclopropyl)-1H-1,2,3-triazol-4-yl)methyl)amino)-4-(neopentylamino)quinoline-3-carbonitrile] |  |
|  | Cc1nc(F)ccc1[C@H](Nc1cc(Cl)c2ncc(C#N)c(NCC(C)(C)C)c2c1)c1cn(CC(C)(C)C(F)(F)F)nn1 [Example 755] | EC50 [2]: 365 nM |
| 69 nM | Cc1nc(F)ccc1[C@H](Nc1cc(Cl)c2ncc(C#N)c(NCC(C)(C)C)c2c1)c1cn(C2(C(C)(C)C)CC2)nn1 [Example 761, (S)-6-(((1-(1-(tert-butyl)cyclopropyl)-1H-1,2,3-triazol-4-yl)(6-fluoro-2-methylpyridin-3-yl)methyl)amino)-8-chloro-4-(neopentylamino)quinoline-3-carbonitrile] |  |
| 40 nM | CC(C)n1ccc2c([C@H](Nc3cc(Cl)c4ncc(C#N)c(NCC(C)(C)C)c4c3)c3cn(C4(C)CC4)nn3)cccc2c1=O [Example 774, (S)-8-chloro-6-(((2-isopropyl-1-oxo-1,2-dihydroisoquinolin-5-yl)(1-(1-methylcyclopropyl)-1H-1,2,3-triazol-4-yl)methyl)amino)-4-(neopentyl-amino)quinoline-3-carbonitrile] |  |
| 46 nM | Cn1ccc2c([C@H](Nc3cc(Cl)c4ncc(C#N)c(NCC(C)(C)C)c4c3)c3cn(C(CF)CF)nn3)cccc2c1=O [Example 777, (S)-8-chloro-6-(((1-(1,3-difluoropropan-2-yl)-1H-1,2,3-triazol-4-yl)(2-methyl-1-oxo-1,2-dihydroisoquinolin-5-yl)methyl)amino)-4-(neopentylamino)quinoline-3-carbonitrile] |  |
| 177 nM | COc1ncccc1[C@H](Nc1cc(Cl)c2ncc(C#N)c(NCC(C)(C)C)c2c1)c1cn(C2(C(F)(F)F)CC2)nn1 [Example 782, (S)-8-chloro-6-(((2-methoxypyridin-3-yl)(1-(1-(trifluoromethyl)cyclopropyl)-1H-1,2,3-triazol-4-yl)methyl)amino)-4-(neopentylamino)quinoline-3-carbonitrile] |  |
| 208 nM | CC(C)(C)CNc1c(C#N)cnc2c(Cl)cc(N[C@H](c3cn(C4(C(F)(F)F)CC4)nn3)c3cccc4c(=O)n(C(F)F)ccc34)cc12 [Example 788, (S)-8-chloro-6-(((2-(difluoromethyl)-1-oxo-1,2-dihydroisoquinolin-5-yl)(1-(1-(trifluoromethyl)cyclopropyl)-1H-1,2,3-triazol-4-yl)methyl)amino)-4-(neopentylamino)quinoline-3-carbonitrile] |  |
| 156 nM | Cn1c(=O)ccc2c([C@H](Nc3cc(Cl)c4ncc(C#N)c(NCC(C)(C)C)c4c3)c3cn(C4(C(F)(F)F)CC4)nn3)cccc21 [Example 789, (S)-8-chloro-6-(((1-methyl-2-oxo-1,2-dihydroquinolin-5-yl)(1-(1-(trifluoromethyl)cyclopropyl)-1H-1,2,3-triazol-4-yl)methyl)amino)-4-(neopentylamino)quinoline-3-carbonitrile] |  |
| 782 nM | CC(C)(C)CNc1c(C#N)cnc2c(Cl)cc(N[C@@H](c3ccc(Cl)nc3)c3cn(C4(C(F)(F)F)CC4)nn3)cc12 [Example 793, (S)-8-chloro-6-(((6-chloropyridin-3-yl)(1-(1-(trifluoromethyl)cyclopropyl)-1H-1,2,3-triazol-4-yl)methyl)amino)-4-(neopentylamino)quinoline-3-carbonitrile] |  |
| 130 nM | Cc1nc(Cl)ccc1[C@H](Nc1cc(Cl)c2ncc(C#N)c(NCC(C)(C)C)c2c1)c1cn(C2(C(F)(F)F)CC2)nn1 [Example 794, (S)-8-chloro-6-(((6-chloro-2-methylpyridin-3-yl)(1-(1-(trifluoromethyl)-cyclopropyl)-1H-1,2,3-triazol-4-yl)methyl)amino)-4-(neopentylamino)quinoline-3-carbonitrile] |  |
| 530 nM | Cc1ccc([C@H](Nc2cc(Cl)c3ncc(C#N)c(NCC(C)(C)C)c3c2)c2cn(C3(C(F)(F)F)CC3)nn2)cn1 [Example 795, (S)-8-chloro-6-(((6-methylpyridin-3-yl)(1-(1-(trifluoromethyl)cyclopropyl)-1H-1,2,3-triazol-4-yl)methyl)amino)-4-(neopentylamino)quinoline-3-carbonitrile] |  |
|  | CC(C)(C)CNc1c(C#N)cnc2c(C#N)cc(N[C@H](c3cn(C4(C(F)(F)F)CC4)nn3)c3cccc4c(C#N)nccc34)cc12 [Example 817, (S)-6-(((1-cyanoisoquinolin-5-yl)(1-(1-(trifluoromethyl)cyclopropyl)-1H-1,2,3-triazol-4-yl)methyl)amino)-4-(neopentylamino)quinoline-3,8-dicarbonitrile] | EC50 (Homo sapiens, Monocyte, read-out: EC50 TNF, LPS-stimulated human monocytes, TNFα TR-FRET): 116 nM |
